This is an account of results in patent US7141604B2, “Citalopram for the treatment of elevated blood pressure” (Egis Gyógyszergyár Rt., priority 2002, dated 2006).

For data set [1], the system named is patients having unstable high blood pressure. Particulars: human, in vivo, po. Here is the method:
In the study 13 patients having unstable high blood pressure were used who suffered from different anxiety disorders and depression.
Out of these patients 3 suffered from panic disorder, 1 from obsessive compulsive disorder and 9 from panic disorder with depression. On the beginning of treatment with the following antidepressants the patients were normotensive.
The patients were treated orally with 40 mg/day of paroxetine, or 100 mg/day of sertraline, or 20 mg/day of fluoxetine, or 150 mg/day of fluvoxamine. After 6 months 60% of the patients and after a period of 12–30 months 40% of the patients became hypertensive beside the normalization of their psychiatric state.
Thereafter the above mentioned antidepressants were substituted with citalopram. The oral dose of citalopram was 5 mg/day on the first week, 10 mg/day on the second week and 20 mg/day on the third week.

Another data set concerns hypertonic patients. Briefly: Study I: antihypertensive effect of citalopram in hypertonic patients with panic disorder. Format: in vivo. The settings on record: for outcome in remaining 84 patients, antihypertensive added to citalopram 20 mg/day: after 6 weeks, oral metoprolol 2×50 mg/day (64 patients) or captopril 2×12.5 mg/day (20 patients) in addition to citalopram. Here is the method: 254 patients participated in the study. All patients were hypertonic. In this group of hypertonics there were 120 patients suffering from panic disorder and agoraphobia, 70 patients suffering from panic disorder with agoraphobia and with depression, and 64 patients suffering from panic disorder with agoraphobia and with social phobia and/or with obsessive compulsive disorder (OCD).
The patients received citalopram in a dose of 5 mg/day on the first week, 10 mg/day on the second week and 20 mg/day on the third and fourth week.
The citalopram treatment of the remaining 84 patients was continued with a weekly oral dosage of 20 mg/day. From said 84 individuals 64 patients were additionally treated orally with metoprolol for 3 weeks in a dose of 2×50 mg/day and 20 patients received captopril in a dose of 2×12.5 mg/day.

The test system of a further data set is hypertensive patients. Description: Study III: patients with high blood pressure but without anxiety or depression. Format: in vivo. The settings on record: for outcome in 55 non-responder patients, antihypertensive added to citalopram 20 mg/day: after six weeks, betaloc oral 100 mg/day (40 patients) or captopril 2×12.5 mg/day (15 patients) in addition to citalopram. Here is the method: In the test 102 hypertensive patients participated who complained of the following symptoms: attack like headache, dizziness, trembling, tremor, sweating, fear of death, sensation of heat and cold, and gastrointestinal complaints. The patients thought that their complaints were the consequence of panic attacks, but this was not supported by their psychiatric anamnesis in an unambiguous manner.
The patients were orally treated with citalopram in a dose of 5 mg/day on the first week, 10 mg/day on the second week and 20 mg/day on the third week.
From the 55 non-responder patients 40 individuals (39%) received betaloc in an oral dose of 100 mg/day and 15 patients (15%) received captopril in a dose of 2×12.5 mg/day, in addition to the administration of 20 mg/day of citalopram.

The conditions of data set [2]: in the course of treatment of depression; cited from earlier work.
Setting [3] is: after 4 weeks treatment, citalopram 5/10/20/20 mg/day, of 254 hypertonic patients.
[4] abbreviates: after three weeks, oral citalopram 5/10/20 mg/day, of 102 hypertensive patients.

SMILES strings stand for the structures. Where two headings read alike, the source gives them in different places.

In the case of `CNCCC(Oc1ccc(C(F)(F)F)cc1)c1ccccc1` (centres unmarked) [fluoxetine], the “patients who became hypertensive” value is 40% in data set [1] and 60% in data set [1] (6 months).

Regarding `COCCCC/C(=N\OCCN)c1ccc(C(F)(F)F)cc1` [fluvoxamine], the “patients who became hypertensive” value in data set [1] is 40%; in data set [1] (6 months) it was 60%.

Take `C[C@H](CS)C(=O)N1CCC[C@H]1C(=O)O` [captopril]: the “outcome in remaining 84 patients, antihypertensive added to citalopram 20 mg/day” value with hypertonic patients was “complete recovery”. Moreover, the “outcome in 55 non-responder patients, antihypertensive added to citalopram 20 mg/day” value in the data set on hypertensive patients is “complete recovery”.

Regarding `CN[C@H]1CC[C@@H](c2ccc(Cl)c(Cl)c2)c2ccccc21` [sertraline], the entries for the “patients who became hypertensive” value in data set [1] and in data set [1] (6 months) were 40% and 60%, respectively.

Turning to `CN(C)CCCC1(c2ccc(F)cc2)OCc2cc(C#N)ccc21` (centres unmarked) [citalopram, 1-(3-dimethylamino-propyl)-1-(4-fluoro-phenyl)-1,3-dihydro-5-isobenzofurance-carbonitrile], in the data set on hypertonic patients (setting [3]), the “patients with complete recovery (became normotensive, symptoms of anxiety and affective disorders disappeared)” value is listed as 170 patients; the “share of patients with complete recovery (became normotensive)” value amounted to 67%. In the data set on hypertensive patients (setting [4]), the “patients recovered and became normotensive” value was 47 patients; the “share of patients recovered and became normotensive” value was 46%. For the same compound, the “undesired side effect given in information leaflet” value in data set [2] is given as “hypotension may occur”.

For `COCCc1ccc(OCC(O)CNC(C)C)cc1` (centres unmarked) [metoprolol], the “outcome in remaining 84 patients, antihypertensive added to citalopram 20 mg/day” value with hypertonic patients is “complete recovery”.

In the case of `COCCc1ccc(OCC(O)CNC(C)C)cc1` (centres unmarked) [betaloc], the “outcome in 55 non-responder patients, antihypertensive added to citalopram 20 mg/day” value in the data set on hypertensive patients was “complete recovery”.

For the compound `Fc1ccc([C@@H]2CCNC[C@H]2COc2ccc3c(c2)OCO3)cc1` [paroxetine], the “patients who became hypertensive” value in data set [1] is 40%; in data set [1] (6 months), 60%.
